Source: a melting point compilation (Tetko et al.; mined from patent text by program, amines drawn as free bases though some values may be those of a salt)

Structure (SMILES)	melting point
COC(=O)C1=C(O)c2cc(Cl)ccc2S(=O)(=O)N1C	201 °C
CN1Cc2c(-c3noc(CCl)n3)ncn2-c2ccc(F)cc2C1=O	245 to 247 °C
CC(C)[N+]([O-])=Cc1cccc(N)c1	103 to 106 °C
CC1(C)C2C=CC3(C)C(C2)C(=O)CCC13O[Si](C)(C)C (centres undefined)	73 to 76 °C
Nc1ccc2[nH]c(CO)cc2c1	159 to 160 °C
Nc1c(F)c(N2C[C@@H](N)[C@@H](n3ccnn3)C2)c(F)c2c1c(=O)c(C(=O)O)cn2-c1ccc(F)cc1F (relative stereo)	279 to 281 °C
CCN(CC)CC1CCN(c2c(F)cc3c(=O)c(C(=O)O)cn(CC)c3c2F)C1 (centres undefined)	210 to 211 °C
CC1(C)CCC(=O)Nc2ccc(N)cc21	168 °C
O=C(CN1CCCCC1)Nc1ccc2cc3ccc(NC(=O)CN4CCCCC4)cc3nc2c1	192 to 194 °C
CC(=O)N1CCN=C1Nc1c(C)c(C)nn1C	212 to 215 °C
CCCn1c(=O)c2[nH]c(C(CO)Cc3ccccc3)nc2n(CCC)c1=O (centres undefined)	145 to 146 °C
CC(=O)NC(=O)OC[C@]1(C)S[C@@H]2[C@H](NC(=O)COc3ccccc3)C(=O)N2[C@H]1C(=O)OCc1ccc([N+](=O)[O-])cc1	83 to 85 °C
Nc1nc2[nH]c(CCCCCc3ccc(C(=O)N[C@@H](CCC(=O)O)C(=O)O)s3)cc2c(=O)[nH]1	181 to 182 °C
CNn1cc(C(=O)O)c(=O)c2cc(F)c(N3CCC(N)C3)c(F)c21 (centres undefined)	210 to 211 °C
CCCN1CCNC1=C[N+](=O)[O-]	147 to 148 °C
CCOC(=O)CNC(=O)c1ccc(O)cc1	205 to 209 °C

Structure (SMILES)	melting point
CC12CC(O)CCC1CCC1C2CCC2(C)C(O)C(N3CCCCC3)CC12 (centres undefined)	215 to 219 °C
NC(=O)CCC1CN(c2ccc3c(c2)OCC2CN(C(=O)CO)CCN32)C(=O)O1 (centres undefined)	115 to 118 °C
COc1cc(-c2cc(C3CCOC3)no2)cc2oc(=O)c(C)c(C)c12 (centres undefined)	122 °C
CCOC(=O)CN1C(=O)[C@@H](NC(=O)OC(C)(C)C)CCc2ccccc21	99 to 101 °C
O=C(O)CCCOc1cccc(CCCCCCOc2ccc3c(c2CCCc2ccccc2)CCCC3=O)c1CCC(=O)O	89 to 91 °C
O=C(O)CCCCCCCCCCC(=O)CCC(=O)O	117 to 118 °C
CC(=O)Nc1ccc(Oc2ccc(S(C)=O)cc2)cc1 (centres undefined)	159 to 161 °C
CC1(C)c2c(Cl)cccc2S(=O)(=O)N1CC=O	156 °C
Fc1ccc(F)c(CN2CCNc3ncc(I)cc32)c1	175 °C
COC(=O)c1ccc(N(C)C)cn1	100 to 103 °C
O=c1cc(CN2CCCC2)[nH]c(=O)[nH]1	176 to 178 °C
C#CCN(C)c1c(-c2c(F)cc(F)cc2F)c(C#N)nc2ncnn12	147 °C
Cc1[nH]cc(C(N)=O)c(=O)c1I	296 to 298 °C
COc1ccc(OCCO)c(C=O)c1	68 to 72 °C
O=C(NCCCc1ccccc1)c1ccc2c(c1)C(Cl)(Cl)c1cc(C(=O)NCCCc3ccccc3)ccc1-2	165 to 167 °C
OCCCCCCCCCCCCCCCCCCCCO	93 °C

Second part, the compound after the results:

melting point	Structure (SMILES)
93 to 100 °C	COP(=O)(OC)C(C)C(NC(=O)OCc1ccccc1)C(=O)N[C@@H](Cc1ccccc1)[C@H](O)C(=O)N1C[C@@H](Cl)C[C@H]1C(=O)NC(C)(C)C (some centres undefined)
71 to 74 °C	COC(=O)C(C)c1ccc(OCCNC(=O)C2Cc3ccccc3N2S(=O)(=O)c2ccc(-c3cccc(C(F)(F)F)c3)cc2)cc1 (centres undefined)
154 °C	Cc1ccc(-c2cc(NCc3cccc(CNc4cc(-c5ccc(C)cc5)[nH]n4)n3)n[nH]2)cc1
107 to 108 °C	C[C@@H]1[C@H](O[Si](C)(C)C(C)(C)C)[C@@H](C)C(S(=O)(=O)c2ccccc2)=C[C@H]1O
167 to 168 °C	COc1ccc(C2=NN(CCCCOc3ccc(C4=NNC(=O)C4(C)C)c(F)c3F)C(=O)C2(C)C)c2cc(C(F)(F)F)sc12
169 to 170 °C	COc1ccc(Cn2cnc3c(-c4ccco4)ncnc32)cc1C
295 to 296 °C	CCCc1nc2ccc(C(=O)c3ccccc3)cc2n1Cc1ccc(C(=O)O)cc1
104 to 105 °C	Cn1nnnc1Cc1ccc(N)cc1
168 to 169 °C	CC(C)(C)OC(=O)N1CC(CCl)c2c1cc([N+](=O)[O-])c1ccccc21 (centres undefined)
134 to 135 °C	Cc1ccc(Cn2nc(-c3cc(C(C)(C)C)c(O)c(C(C)(C)C)c3)c3cccnc32)cc1
49 to 50 °C	CN(CCO)C(c1ccc(Cl)cc1)c1ccc(Cl)cc1
124 to 125 °C	CC(C)(C)[C@H]1CC[C@H](Nc2ncc(CCc3cccnc3)c3ccccc23)CC1
176 to 177 °C	O=C(CCc1cnoc1-c1ccccc1)Nc1ccc(-n2ccnc2)cc1
232 to 233 °C	O=C1N(Cc2ccccn2)c2ccccc2C12COc1cc3nccnc3cc12 (centres undefined)
208 to 210 °C	COc1ncccc1Nc1c(NC(NC(=O)c2cccc(Cl)c2)C(C)(C)C)c(=O)c1=O (centres undefined)
220 to 223 °C	O=C1COc2ccc(NCC(=O)N3CCC(Cc4ccc(F)cc4)CC3)cc2N1
146 to 148 °C	O=C1NC(=O)C(Cc2ccc(O)c(C(=O)NCc3ccc(C(F)(F)F)cc3)c2)S1 (centres undefined)
106 to 107 °C	CCC(=O)Oc1ccc(-c2oc3cc(OC)cc(OC(=O)CC)c3c(=O)c2OC)cc1OC
> 300 °C	COc1ccc(-c2nc3ncn(C)c(=S)n3n2)cc1

melting point	Structure (SMILES)
88 °C	Cc1cccc(-c2cccc(CBr)n2)n1
160 to 161 °C	COc1ccc(C(=O)Cc2c(Cl)cncc2Cl)c2cc(C(=O)N3CCN(C)CC3)oc12
132 to 134 °C	CCC(C)(Oc1ccc(OCc2cc(-c3ccc(OCc4ccccc4)cc3)no2)cc1)C(=O)O (centres undefined)
155 to 156 °C	CCOCc1nc2c(N)nc3cc(-c4cccnc4)ccc3c2n1C[C@@H]1COC(C)(C)O1
> 250 °C	Clc1cc(Cl)c2c(c1)[nH]c1c2ccc2cc[nH]c21
> 300 °C	CCc1nnc2c(O)nc3cc(F)ccc3n12
205 to 207 °C	CCc1cc(OCc2ccc(-c3ccccc3-c3nnnn3-c3ccc([N+](=O)[O-])cc3)cc2)c2c(n1)CCCC2
91 to 93 °C	CCC(=O)NC(Cc1ccccc1)c1ccccn1 (centres undefined)
222 to 226 °C	O=C1C(O)=C(c2ccccc2)CN1Cc1ccco1
236 to 238 °C	Cc1cccc(-n2c(-c3sc(Nc4ccc(Cl)cc4)nc3C)nc3ccccc3c2=O)c1
219 to 221 °C	O=S(=O)(CCN1CCOCC1)Nc1cc(C(c2cc(F)ccc2F)S(=O)(=O)c2ccc(Cl)cc2)c(Cl)cn1 (centres undefined)
108 to 110 °C	COC(=O)c1ccc(OCCCN2CCC(C(=O)c3nc4ccccc4s3)CC2)cc1
175 to 178 °C	CCOC(=O)CC(C)(C)NCC(O)c1ccc(O)c2[nH]c(C(=O)OCC)cc12 (centres undefined)
137 to 138 °C	O=[N+]([O-])c1ccc(Cl)nc1-c1ccncc1
204 to 206 °C	CCOC(=O)c1csc(Nc2nc(C(C)(C)C)c(O)c(C(C)(C)C)n2)n1
124 to 128 °C	Cc1cc(C)c2cccc(OCc3c(Cl)ccc(S(=O)(=O)N4CCC[C@H]4C(=O)NCCCNC(=O)COc4ccc(C=NN)cc4)c3Cl)c2n1
144 to 145 °C	COC(=O)c1ccc(O)c(C(C)(C)C)c1
68 to 70 °C	Cc1ccc2c(c1)C(=O)CC2c1ccc(F)cc1 (centres undefined)
